Patent US10597388B2, “Pyridazinone herbicides” (FMC CORPORATION, priority 2014, dated 2020)

What was measured:
Experiment in all cases: Test D controlled growth environment herbicide test, pre- and postemergence
Assay type in all cases: in vivo
[1] = tested on: foxtail, green (green foxtail, Setaria viridis)
Source text: (§1) Seeds of plant species selected from bluegrass (annual bluegrass, Poa annua), blackgrass (Alopecurus myosuroides), Canada thistle (Cirsium arvense), canarygrass (Phalaris minor), chickweed (common chickweed, Stellaria media), geranium, cutleaf (cutleaf geranium, Geranium dissectum), galium (catchweed bedstraw, Galium aparine), bromegrass, downy (downy bromegrass, Bromus tectorum), field poppy (Papaver rhoeas), field violet (Viola arvensis), foxtail, green (green foxtail, Setaria viridis), deadnettle (henbit deadnettle, Lamium amplexicaule), ryegrass, Italian (Italian ryegrass, Lolium multiflorum), kochia (Kochia scoparia), lambsquarters (Chenopodium album), oilseed rape (Brassica napus), pigweed (Amaranthus retroflexus), chamomile (scentless chamomile, Matricaria inodora), Russian thistle (Salsola kali), speedwell (bird's-eye speedwell, Veronica persica), barley, spring (spring barley, Hordeum vulgare), wheat, spring (spring wheat, Triticum aestivum), buckwheat, wild (wild buckwheat, Polygonum convolvulus), mustard, wild (wild mustard, Sinapis arvensis), oat, wild (wild oat, Avena fatua), radish, wild (wild radish, Raphanus raphanistrum), windgrass (Apera spica-venti), barley, winter (winter barley, Hordeum vulgare), and wheat, winter (winter wheat, Triticum aestivum) were planted into a silt loam soil and treated preemergence with test chemicals formulated in a non-phytotoxic solvent mixture which included a surfactant.
(§2) At the same time, these species were planted in pots containing Redi-Earth® planting medium (Scotts Company, 14111 Scottslawn Road, Marysville, Ohio 43041) comprising spaghnum peat moss, vermiculite, wetting agent and starter nutrients and treated with postemergence applications of the test chemicals formulated in the same manner. Plants ranged in height from 2 to 18 cm (1- to 4-leaf stage). Treated plants and controls were maintained in a controlled growth environment for 14 to 21 d after which time all species were compared to controls and visually evaluated. Plant response ratings, summarized in Table D, are based on a scale of 0 to 100 where 0 is no effect and 100 is complete control. A dash (-) response means no test result.

[2] = tested on: field poppy (Papaver rhoeas)
Source text: as §1, §2

[3] = tested on: chickweed (common chickweed, Stellaria media)
Source text: as §1, §2

[4] = tested on: blackgrass (Alopecurus myosuroides)
Source text: as §1, §2

[5] = tested on: lambsquarters (Chenopodium album)
Source text: as §1, §2

[6] = tested on: chamomile (scentless chamomile, Matricaria inodora)
Source text: as §1, §2

[7] = tested on: wheat, spring (spring wheat, Triticum aestivum)
Source text: as §1, §2

[8] = tested on: barley, winter (winter barley, Hordeum vulgare)
Source text: as §1, §2

[9] = tested on: ryegrass, Italian (Italian ryegrass, Lolium multiflorum)
Source text: as §1, §2

[10] = tested on: wheat, winter (winter wheat, Triticum aestivum)
Source text: as §1, §2

[11] = tested on: deadnettle (henbit deadnettle, Lamium amplexicaule)
Source text: as §1, §2

[12] = tested on: bromegrass, downy (downy bromegrass, Bromus tectorum)
Source text: as §1, §2

[13] = tested on: barley, spring (spring barley, Hordeum vulgare)
Source text: as §1, §2

[14] = Postemergence, 31 g ai/ha, scale 0 to 100 (0 no effect, 100 complete control)
[15] = Postemergence, 125 g ai/ha, visual rating on scale 0 (no effect) to 100 (complete control), 14 to 21 d
[16] = Postemergence, 250 g ai/ha, scale 0 to 100 (0 no effect, 100 complete control)
[17] = Preemergence, 62 g ai/ha, scale 0 to 100 (0 no effect, 100 complete control)
[18] = Preemergence, 125 g ai/ha, scale 0 to 100 (0 no effect, 100 complete control)
[19] = Preemergence, 250 g ai/ha, scale 0 to 100 (0 no effect, 100 complete control)
[20] = postemergence, 62 g ai/ha, scale 0 to 100, 0 no effect, 100 complete control

## CC(=O)Oc1c(C)nn(C)c(=O)c1-c1c(C)sc2ccc(C)cc12 [Compound 25]
[1]; [14]
  Foxtail, Green plant response rating: 60
[1]; [15]
  Plant response rating, Foxtail, Green: 70
[1]; [16]
  Plant response rating, Foxtail, Green: 75
[1]; Preemergence, 31 g ai/ha
  Plant response rating (scale of 0 to 100), Foxtail, Green: 35
[1]; [17]
  Plant response rating, Foxtail, Green: 90
[1]; [18]
  Plant response rating, Foxtail, Green: 95
[1]; [19]
  Plant response rating, Foxtail, Green: 100
[1]; [20]
  Plant response rating, Foxtail, Green: 65
[2]; [14]
  Field Poppy plant response rating: 70
[2]; [15]
  Plant response rating, Field Poppy: 100
[2]; [16]
  Plant response rating, Field Poppy: 100
[2]; Preemergence, 31 g ai/ha
  Plant response rating (scale of 0 to 100), Field Poppy: 95
[2]; [17]
  Plant response rating, Field Poppy: 100
[2]; [18]
  Plant response rating, Field Poppy: 100
[2]; [19]
  Plant response rating, Field Poppy: 100
[2]; [20]
  Plant response rating, Field Poppy: 80
[3]; [14]
  Chickweed plant response rating: 98
[3]; [15]
  Plant response rating, Chickweed: 100
[3]; [16]
  Plant response rating, Chickweed: 100
[3]; Preemergence, 31 g ai/ha
  Plant response rating (scale of 0 to 100), Chickweed: 95
[3]; [17]
  Plant response rating, Chickweed: 100
[3]; [18]
  Plant response rating, Chickweed: 100
[3]; [19]
  Plant response rating, Chickweed: 100
[3]; [20]
  Plant response rating, Chickweed: 98
[4]; [14]
  Blackgrass plant response rating: 65
[4]; [15]
  Plant response rating, Blackgrass: 80
[4]; [16]
  Plant response rating, Blackgrass: 80
[4]; Preemergence, 31 g ai/ha
  Plant response rating (scale of 0 to 100), Blackgrass: 85
[4]; [17]
  Plant response rating, Blackgrass: 90
[4]; [18]
  Plant response rating, Blackgrass: 90
[4]; [19]
  Blackgrass plant response rating: 95
[4]; [20]
  Plant response rating, Blackgrass: 75
[5]; [14]
  Lambsquarters plant response rating: 90
[5]; [15]
  Plant response rating, Lambsquarters: 90
[5]; [16]
  Plant response rating, Lambsquarters: 95
[5]; Preemergence, 31 g ai/ha
  Plant response rating (scale of 0 to 100), Lambsquarters: 80
[5]; [17]
  Plant response rating, Lambsquarters: 95
[5]; [18]
  Plant response rating, Lambsquarters: 98
[5]; [19]
  Plant response rating, Lambsquarters: 100
[5]; [20]
  Plant response rating, Lambsquarters: 90
[6]; [14]
  Chamomile plant response rating: 75
[6]; [15]
  Plant response rating, Chamomile: 100
[6]; [16]
  Plant response rating, Chamomile: 100
[6]; Preemergence, 31 g ai/ha
  Plant response rating (scale of 0 to 100), Chamomile: 100
[6]; [17]
  Plant response rating, Chamomile: 100
[6]; [18]
  Plant response rating, Chamomile: 100
[6]; [19]
  Plant response rating, Chamomile: 95
[6]; [20]
  Plant response rating, Chamomile: 95
[7]; [14]
  Wheat, Spring plant response rating: 0
[7]; [15]
  Plant response rating, Wheat, Spring: 15
[7]; [16]
  Plant response rating, Wheat, Spring: 20
[7]; Preemergence, 31 g ai/ha
  Plant response rating (scale of 0 to 100), Wheat, Spring: 0
[7]; [17]
  Plant response rating, Wheat, Spring: 0
[7]; [18]
  Plant response rating, Wheat, Spring: 10
[7]; [19]
  Plant response rating, Wheat, Spring: 25
[7]; [20]
  Plant response rating, Wheat, Spring: 0
[8]; [14]
  Plant response rating, Barley, Winter: 0
[8]; [15]
  Plant response rating, Barley, Winter: 0
[8]; [16]
  Plant response rating, Barley, Winter: 10
[8]; Preemergence, 31 g ai/ha
  Plant response rating (scale of 0 to 100), Barley, Winter: 0
[8]; [17]
  Plant response rating, Barley, Winter: 0
[8]; [18]
  Plant response rating, Barley, Winter: 5
[8]; [19]
  Barley, Winter plant response rating: 20
[8]; [20]
  Plant response rating, Barley, Winter: 0
[9]; [14]
  Ryegrass, Italian plant response rating: 75
[9]; [15]
  Plant response rating, Ryegrass, Italian: 85
[9]; [16]
  Plant response rating, Ryegrass, Italian: 90
[9]; Preemergence, 31 g ai/ha
  Plant response rating (scale of 0 to 100), Ryegrass, Italian: 95
[9]; [17]
  Plant response rating, Ryegrass, Italian: 100
[9]; [18]
  Plant response rating, Ryegrass, Italian: 100
[9]; [19]
  Plant response rating, Ryegrass, Italian: 100
[9]; [20]
  Plant response rating, Ryegrass, Italian: 85
[10]; [14]
  Wheat, Winter plant response rating: 0
[10]; [15]
  Plant response rating, Wheat, Winter: 5
[10]; [16]
  Plant response rating, Wheat, Winter: 20
[10]; Preemergence, 31 g ai/ha
  Plant response rating (scale of 0 to 100), Wheat, Winter: 0
[10]; [17]
  Plant response rating, Wheat, Winter: 0
[10]; [18]
  Plant response rating, Wheat, Winter: 0
[10]; [19]
  Plant response rating, Wheat, Winter: 20
[10]; [20]
  Plant response rating, Wheat, Winter: 0
[11]; [14]
  Deadnettle plant response rating: 5
[11]; [15]
  Plant response rating, Deadnettle: 20
[11]; [16]
  Plant response rating, Deadnettle: 45
[11]; Preemergence, 31 g ai/ha
  Plant response rating (scale of 0 to 100), Deadnettle: 0
[11]; [17]
  Plant response rating, Deadnettle: 0
[11]; [18]
  Plant response rating, Deadnettle: 0
[11]; [19]
  Plant response rating, Deadnettle: 50
[11]; [20]
  Plant response rating, Deadnettle: 10
[12]; [14]
  Bromegrass, Downy plant response rating: 5
[12]; [15]
  Plant response rating, Bromegrass, Downy: 50
[12]; [16]
  Plant response rating, Bromegrass, Downy: 65
[12]; Preemergence, 31 g ai/ha
  Plant response rating (scale of 0 to 100), Bromegrass, Downy: 40
[12]; [17]
  Plant response rating, Bromegrass, Downy: 65
[12]; [18]
  Plant response rating, Bromegrass, Downy: 80
[12]; [19]
  Plant response rating, Bromegrass, Downy: 85
[12]; [20]
  Plant response rating, Bromegrass, Downy: 25
[13]; [14]
  Plant response rating, Barley, Spring: 0
[13]; [15]
  Plant response rating, Barley, Spring: 0
[13]; [16]
  Plant response rating, Barley, Spring: 10
[13]; Preemergence, 31 g ai/ha
  Plant response rating (scale of 0 to 100), Barley, Spring: 0
[13]; [17]
  Plant response rating, Barley, Spring: 0
[13]; [18]
  Plant response rating, Barley, Spring: 0
[13]; [19]
  Barley, Spring plant response rating: 0
[13]; [20]
  Plant response rating, Barley, Spring: 0
